# A melting point compilation (Tetko et al.; mined from patent text by program, amines drawn as free bases though some values may be those of a salt)
row,melting point [°C],Compound
1,125 to 126,COc1cc2ncnc(Nc3ccc(OCc4ccccn4)c(C)c3)c2cc1OCCN(C)C
2,126 to 128,CCC(=O)N1CCC(=NO)c2cc(F)ccc21
3,254 to 255,Cn1nc2c(N)nc3ccccc3c2c1CC(C)(C)C
4,76 to 77,CCN(CC)C(=O)N1CCN(c2nc(-c3ccccc3)cs2)CC1
5,163,CN1CC(N2CCc3ccccc3C2)ON=C1CC(c1ccccc1)c1ccccc1 (centres undefined)
6,223 to 234,CCCn1c(=O)[nH]c2cc(Cl)cc(Cl)c2c1=O
7,229 to 230,COC(=O)c1ccc(Cc2cccc3ccc(C(=O)O)cc23)c(OC)c1
8,166 to 168,COc1ccc(-c2cc(=O)n(Cc3ccc(OC)c(F)c3)nc2-c2ccc(OC)cc2)cc1
9,102 to 103,CCN1C(=O)c2cccnc2N(CC)c2ncccc21
10,219 to 220,Oc1ccc2c(c1)CCc1c-2oc2cc(O)ccc12
11,209,CCOC(=O)c1cc(=O)c2ccc3nc(C(=O)OC)cc(Cl)c3c2o1
12,146,Cc1ccc2c(c1)c(N1CCN(C(=O)c3ccco3)CC1)c(C#N)c(=O)n2Cc1ccccc1
13,118 to 119,O=C(O)CSC(CCCc1ccccc1)c1ccc(OCc2ccc3ccccc3n2)cc1 (centres undefined)
14,108 to 110,CCOC(=O)c1cc(-c2ccc(OCc3cccnc3)cc2O[C@H](CCC(=O)O)c2ccccc2C)n[nH]1
15,138,COC(=O)Nc1nc2ccccc2n1CCCN1CCN(C(c2ccccc2)c2ccccc2)CC1
16,248 to 249,CC(C)(C)OC(=O)N1CCC(CCNC2(c3ccccc3Cl)C(=O)Nc3cc(Cl)c(Cl)cc32)CC1 (centres undefined)
17,174 to 175,CCCc1ccc2nc(Cl)c(S(N)(=O)=O)n2n1
18,130 to 132,Cc1ccc(CNC(=O)c2cc(Cl)cc3cc(C)oc23)cc1
19,158 to 182,COC(=O)Nc1nc2ccc(Sc3ccccc3)cn2c1CN1CCOCC1
20,68,CC1=NC(NC(=O)OCc2ccccc2)C(=O)N(CC(=O)C(C)(C)C)c2ccccc21 (centres undefined)
21,66 to 67,Cc1nc(Cc2ccc([N+](=O)[O-])cc2)no1
22,185 to 186,COc1cc(COc2ccc3nc(NC(=O)OCCN(C)C)cn3n2)cc(OC)c1OC
23,122 to 124,Cc1ccc(S(=O)(=O)OCC2COc3ccc4ccccc4c3O2)cc1 (centres undefined)
24,206 to 208,COc1ccc(NC(=O)c2c(C)c([N+](=O)[O-])cc3nc(OC)c(OC)nc23)cc1

row,melting point [°C],Compound
1,99 to 100,COC(=O)CN1C(=S)C(C(C)C)Sc2ccccc21 (centres undefined)
2,79.2 to 79.7,CCOc1ccc(-c2nc(CCC(=O)c3ncccc3OC)cs2)cc1OCC
3,122 to 126,O=C(CCCCC1CCSS1)NC(Cc1c[nH]cn1)C(=O)O (centres undefined)
4,96 to 98,O=CC1CCc2[nH]c3ccc(F)cc3c2C1 (centres undefined)
5,204 to 205,CCOc1cc2c(cc1S(N)(=O)=O)C(CNC(=O)c1cc(Cl)ccc1OC)CCO2 (centres undefined)
6,> 300,N#Cc1cc2c(-c3ccncc3)nccc2[nH]c1=O
7,103 to 104,CCOC(=O)C(=O)Nc1cc(Cl)ccc1[N+](=O)[O-]
8,229 to 234,O=C(Nc1c(C(=O)c2ccccc2)[nH]c2cc(Cl)ccc12)c1ccccc1Cl
9,221 to 223,CCc1nnc2c(OC)nc3cc(Cl)ccc3n12
10,335 to 338,N#Cc1ccc2c(c1)NC(=O)C2c1ncnc2c1cnn2C1CCCC1 (centres undefined)
11,160 to 166,Cc1cc(C)c(COc2cccnc2N)c(C)c1
12,33 to 35,CCCSc1ccc(C(=O)OC)nc1
13,184 to 187,Cc1nc2c(N)nc3ccccc3c2n1CCCCS(C)=O (centres undefined)
14,155 to 156,COCCCn1c(C=O)cc2c3c(c(-c4ccccc4Cl)cc21)C(=O)NC3=O
15,88,c1ccc(-c2ccc(CN3CCN(c4ccccc4)CC3)s2)cc1
16,158 to 160,NC1CCN(c2cnccn2)CC1
17,230 to 233,COc1cc(-c2nc(-c3ccc(N(C)C)cc3)c(C)s2)cc(OC)c1O
18,108,COc1ccc(CNc2ccc(C#N)cc2)cc1F
19,124 to 126,COc1ccc(S(=O)(=O)n2ccc3ccccc32)cc1
20,205 to 207,COc1ccc(Cl)cc1C1(F)C(=O)Nc2ccc(F)cc21 (centres undefined)
21,180 to 190,O=c1[nH]c2ccc(C(F)(F)F)cc2c(-c2cc(Cl)ccc2O)c1Sc1ccc(O)cc1
22,123 to 124,CCOC(=O)Nc1c(-c2ccccc2)c2cc(Cl)ccc2n1C
23,146 to 148,CCOC(=O)c1cn2c(ccc3ccc(OC)cc32)n1
24,210 to 211,CC(=O)c1ccc2c(c1)[C@@H](NC(=O)Nc1ccccc1)[C@H](O)C(C)(C)O2 (relative stereo)

row,melting point [°C],Compound
1,73 to 75,CC(C)(O)CCCCCc1cccc(CCc2ccc(O)c(CO)c2)c1
2,126,CCCC(=O)OC1(C(=O)COC(=O)CC)CCC2C3CC(C)C4=CC(=O)C=CC4(C)C3C(O)CC21C (centres undefined)
3,272 to 274,CCOC(=O)c1cc2n(C)c3ccc(Cl)cc3c(=O)n2n1
4,187 to 189,COc1cn(-c2ccc(C3CCOCC3)cc2F)nc(-c2ccnn2-c2ccccc2)c1=O
5,212,CNc1ccc(C2CC(=O)N(C)C2C(O)c2ccc(-c3ccccc3)s2)cc1 (centres undefined)
6,159 to 162,CCC(CC)c1ccc(-c2ccco2)c2nc(Oc3ccc(Cl)cc3Br)n(C)c12
7,116 to 120,Cc1nc2cc(NCC(=O)C3(C)CC3)ccc2s1
8,133 to 136,CCC1(C)CC(O)C2(C)CCC3c4ccc(OC)cc4CCC3C12 (centres undefined)
9,145 to 170,COc1cc(Nc2nc3cccc(-c4cccc(N)c4)c3o2)cc(OC)c1OC
10,282 to 284,COc1ccc(-c2c3c(c(C)c4ccc(OC)cc24)C(=O)NC3=O)cc1
11,218,CC(C)(C)C(=O)OCc1cc2c(cc1C#Cc1ccccc1)NC(=O)CC(c1cccc(C#N)c1)=N2
12,94 to 97,Fc1ccccc1NC(=S)c1ccccn1
13,139 to 141,CC(C)c1ccc(-c2nc(=O)n(Cc3ccccc3)c3ccc(OCC#N)cc23)cc1
14,114 to 116,CCNC(C)c1nc(CSCCNC(=C[N+](=O)[O-])NC)cs1 (centres undefined)
15,240 to 242,CC(C)n1nc(-c2c(Nc3ccccc3)nc(N)nc2-c2ccccc2)ccc1=O
16,115,Nc1ccc(F)cc1CCN1CCN(c2nsc3ccccc23)CC1
17,237 to 239,O=C(O)c1ccc(OC(=O)c2cccc(C34CC5CC(CC(C5)C3)C4)c2)cc1
18,155 to 158,O=C(O)C(O)=CC(=O)c1ccccc1
19,126 to 127,CSc1ccc(C(C)C)c(NC(=O)CN2CCN(CCCSc3nc4ccccc4o3)CC2)c1C(C)C
20,58 to 59,FC(F)(F)c1cc(N(Cc2ccsc2)Cc2ccccn2)cc(C(F)(F)F)c1Br
21,121,Cc1ccc(C2(Cn3cncn3)OCCO2)cc1Br
22,108 to 109,O=C(c1cccs1)C(O)c1ccc(Cl)c(Cl)c1 (centres undefined)
23,204 to 205,CS(=O)(=O)c1cccc(Nc2cc(-c3ccc(C(F)(F)F)cc3)ncn2)c1
24,239,CNC(=O)COC1C(O)C(CO)OC(Oc2ccc(N)cc2)C1O (centres undefined)

row,melting point [°C],Compound
1,161,COc1cc(C(=O)OCc2cc(COC(=O)c3ccc(O)c(OC)c3)cc(COC(=O)c3ccc(O)c(OC)c3)c2)ccc1O
2,80.5 to 81.5,OC1CCc2c(-c3ccccc3)cccc21 (centres undefined)
3,199 to 200,O=C(NCCCC[C@H](NC(=O)OCc1ccccc1)C(=O)Nc1ccc(-c2ccc(C(=O)O)c(=O)[nH]2)cc1)OCc1ccccc1
4,151 to 152,CC(Cl)c1cc(F)ccc1Oc1nc2ccc(-n3cc(-c4ccccc4)nn3)cc2cc1Cc1ccccc1 (centres undefined)
5,211,Nc1nc(C(=O)O)c(-c2ccncc2)s1
6,> 250,COc1cc2cc(CO)c(CO)c(-c3ccnc(-n4c(=O)cc(C(=O)O)c5ccccc54)c3)c2cc1OC
7,141 to 143,CCCCCCCN(Cc1ccc(C(C)(C)C)cc1)C(Nc1c(C)cc(C)cc1C)=C1C(=O)COC1=O
8,66,CCOC(=O)c1ccc(C2=CCCCC2)cc1
9,46 to 51,CC(C)NC(=O)CCCCCCI
10,150 to 153,CC(C)(C)OC(=O)[C@@H]1CCCN1C(=O)CNS(=O)(=O)c1cccc2cccnc12
11,142,C=CCc1cccc2c(=O)cc(C=Cc3ccccc3)oc12
12,194 to 195,Cc1cccc(C(=O)NC(C)C)c1N(C(=O)c1cc(C(F)(F)F)[nH]n1)c1ncccc1Cl
13,115 to 125,CCOC(=O)CNC(=O)Nc1ccc(S(=O)(=O)Nc2onc(C)c2C)cc1
14,88 to 89,CC(C)(C)OC(=O)N1CCCN(c2ccc(F)cc2)CC1
15,117 to 119,CCN(CC)c1ccc(-c2cc3ccccc3o2)cc1
16,134 to 136,Clc1ccc(-c2cn3c(n2)CCCC3)c(Cl)c1
17,177 to 181,O=C(O)c1cc(-c2ccc3c(c2)CCO3)nn(CC=Cc2ccc(Cl)cc2)c1=O
18,43 to 45,CCOC(=O)c1ccc(Br)c(OCC)c1N(CC)S(C)(=O)=O
19,119 to 126,CC(C)(C)OC(=O)N1C2CCC(C2)N1CC(O)C(Cc1ccccc1)NC(=O)OCc1ccccc1 (mixture of isomers)
20,218 to 222,Cn1ccnc1-c1ccc(-c2cnc([C@H](Cc3ccccn3)N(C=O)c3cc4ccccc4[nH]3)n2C)cc1
21,101 to 102,Cc1oc(-c2ccccc2)nc1COc1cccc(CO)c1
22,132 to 134,CCC(CC)c1cccc2nc(C(O)c3c(C)cc(C)cc3C)n(C)c12 (centres undefined)
23,236,N#Cc1ccc(NC(=O)c2ccc(C=O)cc2)cc1

row,Compound,melting point [°C]
1,CC(=O)c1ccc(N2CCN(C)CC2)cc1,97 to 99
2,CCC12CCC3C4CCC(=O)C=C4CCC3C1CCC2OC(=O)CCC1CCCC1 (centres undefined),88 to 89
3,CN1C(=O)[C@H](NC(=O)COc2ccc(Cl)cc2Cl)N=C(c2ccccc2)c2ccccc21,206
4,Cc1cc(Cl)cc(C(=O)NCC2CCO2)c1NC(=O)c1cc(Br)nn1-c1ncccc1Cl (centres undefined),95 to 97
